Test results: patent US10821115B2, “Compounds that inhibit Mcl-1 protein” (priority 2017, dated 2020)
Like-named read-outs stand apart in the source and are kept apart here.

Key:
[1] = target: recombinant human Mcl-1 (residues 171-327) / Bim interaction (Homo sapiens (Human), UniProt Q07820); assay: biochemical; format: binding; settings: read-out: Mcl-1 HTRF IC50
[2] = system: human multiple myeloma cell line, OPM-2; assay: Cell viability assay (OPM-2 10 FBS), CellTiter-Glo; format: cell-based
Method in brief: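 3000 cells/well, RPMI 1640 + 10% FBS; serial compound dilutions, 16 h, 37 °C/5% CO2.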

[3] = TR-FRET, Mcl-1(171-327) / biotin-Bim (51-76)
[4] = Homo sapiens, OPM-2, 16 h, read-out: OPM-2 10% FBS IC50 IP, OPM-2 cells, 10% FBS, 16 h, CellTiter-Glo
[5] = 0.1 nM Mcl-1(171-327), 0.05 nM biotin-Bim (51-76)
[6] = Homo sapiens, OPM-2, 16 h, read-out: OPM-2 10% FBS IC50 IP, OPM-2 cells, 10% FBS, 16 h incubation
[7] = read-out: OPM-2 10% FBS IC50 IP, OPM-2 cells, 10% FBS, 16 h, CellTiter-Glo
[8] = read-out: OPM-2 10% FBS IC50 IP, OPM-2 cells, 10% FBS, 16 h incubation

Sequence of recombinant human Mcl-1 (residues 171-327) / Bim interaction (Q07820 171-327): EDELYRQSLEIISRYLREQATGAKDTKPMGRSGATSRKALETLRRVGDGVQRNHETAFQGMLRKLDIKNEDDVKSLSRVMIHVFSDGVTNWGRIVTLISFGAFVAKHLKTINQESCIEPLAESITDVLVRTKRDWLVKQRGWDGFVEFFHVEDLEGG

| Compound | IC50 [1, 3] | IC50 [2, 4] | also measured |
| --- | --- | --- | --- |
| C[C@@H]1[C@@H](C)CCC[C@]2(CC(N3CCN(C)CC3)=NO2)[C@@H]2CC[C@H]2CN2C[C@@]3(CCCc4cc(Cl)ccc43)COc3ccc(cc32)C(=O)NS1(=O)=O [Example 100216, (1S,3′R,6′R,7′S,11′S,12′R)-6-chloro-11′,12′-dimethyl-3″-(4-methyl-1-piperazinyl)-3,4-dihydro-2H,4″H,15′H-dispiro[naphthalene-1,22′-[20]oxa[13]thia[1,14]diazatetracyclo [14.7.2.0~3,6~.0~19,24~]pentacosa[16,18,24]triene-7′,5″-[1,2]oxazol]-15′-one 13′,13′-dioxide] | 0.311 nM | 374 nM |  |
| C[C@@H]1[C@@H](C)C/C=C/[C@@](O)(c2nccn2C)[C@@H]2CC[C@H]2CN2C[C@@]3(CCCc4cc(Cl)ccc43)COc3ccc(cc32)C(=O)NS1(=O)=O [Example 100199, (1S,3′R,6′R,7′S,8′E,11′S,12′R)-6-chloro-7′-hydroxy-11′,12′-dimethyl-7′-(1-methyl-1H-imidazol-2-yl)-3,4-dihydro-2H,15′H-spiro[naphthalene-1,22′-[20]oxa[13]thia[1,14]diazatetracyclo [14.7.2.0~3,6~.0~19,24~]pentacosa[8,16,18,24]tetraen]-15′-one 13′,13′-dioxide] | 0.166 nM | 148 nM |  |
| C=CCO[C@]1(CN2CCN3CCOC[C@@H]3C2)/C=C/C[C@H](C)[C@@H](C)S(=O)(=O)NC(=O)c2ccc3c(c2)N(C[C@@H]2CC[C@H]21)C[C@@]1(CCCc2cc(Cl)ccc21)CO3 [Example 46, (1S,3′R,6′R,7′R,8′E,11′S,12′R)-6-chloro-7′-((9aS)-hexahydropyrazino[2,1-c][1,4]oxazin-8(1H)-ylmethyl)-11′,12′-dimethyl-7′-(2-propen-1-yloxy)-3,4-dihydro-2H,15′H-spiro[naphthalene-1,22′-[20]oxa[13]thia[1,14]diazatetracyclo [14.7.2.0~3,6~.0~19,24~]pentacosa[8,16,18,24]tetraen]-15′-one 13′,13′-dioxide] |  |  | IC50 [1, 5]: 0.107 nM; IC50 [2, 6]: 167 nM |
| CCN(CC)C(=O)C[C@]1(O)CCC[C@H](C)[C@@H](C)S(=O)(=O)NC(=O)c2ccc3c(c2)N(C[C@@H]2CC[C@H]21)C[C@@]1(CCCc2cc(Cl)ccc21)CO3 [Example 100111, 2-((1S,3′R,6′R,7′R,11′S,12′R)-6-chloro-7′-hydroxy-11′,12′-dimethyl-13′,13′-dioxido-15′-oxo-3,4-dihydro-2H-spiro[naphthalene-1,22′-[20]oxa[13]thia[1,14]diazatetracyclo [14.7.2.0~3,6~.0~19,24~]pentacosa[16,18,24]trien]-7′-yl)-N,N-diethylacetamide] |  |  | IC50 [1]: 0.352 nM; IC50 [2, 7]: 687 nM |
| C[C@@H]1[C@@H](C)C/C=C/[C@@](O)(CCCO)[C@@H]2CC[C@H]2CN2C[C@@]3(CCCc4cc(Cl)ccc43)COc3ccc(cc32)C(=O)NS1(=O)=O (stereo in doubt) [Example 100128] | 0.089 nM | 217 nM |  |
| CO[C@@]1(CC(=O)N2CCCC2)/C=C/C[C@H](C)[C@@H](C)S(=O)(=O)NC(=O)c2ccc3c(c2)N(C[C@@H]2CC[C@H]21)C[C@@]1(CCCc2cc(Cl)ccc21)CO3 [Example 100010, (1 S,3′R,6′R,7′S,8′E,11′S, 12′R)-6-chloro-7′-methoxy-11′,12′-dimethyl-7′-(2-oxo-2-(1-pyrrolidinyl)ethyl)-3,4-dihydro-2H, 15′H-spiro[naphthalene-1,22′-[20]oxa[13]thia[1,14]diazatetracyclo[14.7.2.0-3,6˜.0˜19,24˜]pentacosa[8,16,18,24]tetraen]-15′-one 13′,13′-dioxide] | 0.077 nM | 142 nM |  |
| C[C@@H]1[C@@H](C)CCCC(CO)(CO)[C@@H]2CC[C@H]2CN2C[C@@]3(CCCc4cc(Cl)ccc43)COc3ccc(cc32)C(=O)NS1(=O)=O [Example 100342, (1S,3′R,6′R,11′S,12′R)-6-chloro-7′,7′-bis(hydroxymethyl)-11′,12′-dimethyl-3,4-dihydro-2H,15′H-spiro[naphthalene-1,22′-[20]oxa[13]thia[1,14]diazatetracyclo [14.7.2.0~3,6~.0~19,24~]pentacosa[16,18,24]trien]-15′-one 13′,13′-dioxide] | 1.69 nM | 782 nM |  |
| CO[C@@]1(c2nccn2C)CCC[C@H](C)[C@@H](C)S(=O)(=O)NC(=O)c2ccc3c(c2)N(C[C@@H]2CC[C@H]21)C[C@@]1(CCCc2cc(Cl)ccc21)CO3 [Example 100230, (1S,3′R,6′R,7′S,11′S,12′R)-6-chloro-7′-methoxy-11′,12′-dimethyl-7′-(1-methyl-1H-imidazol-2-yl)-3,4-dihydro-2H,15′H-spiro[naphthalene-1,22′-[20]oxa[13]thia[1,14]diazatetracyclo [14.7.2.0~3,6~.0~19,24~]pentacosa[16,18,24]trien]-15′-one 13′,13′-dioxide] | 0.473 nM | 544 nM |  |
| CO[C@@]1(C[C@@H](O)C(C)C)/C=C/C[C@H](C)[C@@H](C)S(=O)(=O)NC(=O)c2ccc3c(c2)N(C[C@@H]2CC[C@H]21)C[C@@]1(CCCc2cc(Cl)ccc21)CO3 (single isomer, unassigned) [Example 100367] | 0.371 nM |  | IC50 [2, 7]: 604 nM |
| C[C@@H]1[C@@H](C)CCC[C@@](O)(CN)[C@@H]2CC[C@H]2CN2C[C@@]3(CCCc4cc(Cl)ccc43)COc3ccc(cc32)C(=O)NS1(=O)=O (single isomer, unassigned) [Example 507] |  |  | IC50 [1, 5]: 13.7 nM; IC50 [2, 8]: > 33300 nM |
| COCC[C@@H]1[C@@H](C)C/C=C/[C@](CN2CCN(C3COC3)CC2)(OC)[C@@H]2CC[C@H]2CN2C[C@@]3(CCCc4cc(Cl)ccc43)COc3ccc(nc32)C(=O)NS1(=O)=O [Example 23, (1S,3′R,6′R,7′S,8′E,11′S,12′R)-6-chloro-7′-methoxy-12′-(2-methoxyethyl)-11′-methyl-7′-((4-(3-oxetanyl)-1-piperazinyl)methyl)-3,4-dihydro-2H,15′H-spiro[naphthalene-1,22′-[20]oxa[13]thia[1,14,25]triazatetracyclo [14.7.2.0~3,6~.0~19,24~]pentacosa[8,16,18,24]tetraen]-15′-one 13′,13′-dioxide] |  |  | IC50 [1, 5]: 0.071 nM; IC50 [2, 6]: 24 nM |
| C[C@@H]1[C@@H](C)C/C=C/[C@@](O)(Cc2ccccn2)[C@@H]2CC[C@H]2CN2C[C@@]3(CCCc4cc(Cl)ccc43)COc3ccc(cc32)C(=O)NS1(=O)=O [Example 100241, (1S,3′R,6′R,7′S,8′E,11′S,12′R)-6-chloro-7′-hydroxy-11′,12′-dimethyl-7′-(2-pyridinylmethyl)-3,4-dihydro-2H,15′H-spiro[naphthalene-1,22′-[20]oxa[13]thia[1,14]diazatetracyclo [14.7.2.0~3,6~.0~19,24~]pentacosa[8,16,18,24]tetraen]-15′-one 13′,13′-dioxide] | 0.365 nM |  | IC50 [2, 7]: 401 nM |
| C[C@@H]1[C@@H](C)C/C=C/[C@](O)(CCCO)[C@@H]2CC[C@H]2CN2C[C@@]3(CCCc4cc(Cl)ccc43)COc3ccc(cc32)C(=O)NS1(=O)=O [Example 100156, (1S,3′R,6′R,7′R,8′E,11′S,12′R)-6-chloro-7′-hydroxy-7′-(3-hydroxypropyl)-11′,12′-dimethyl-3,4-dihydro-2H,15′H-spiro[naphthalene-1,22′-[20]oxa[13]thia[1,14]diazatetracyclo [14.7.2.0~3,6~.0~19,24~]pentacosa[8,16,18,24]tetraen]-15′-one 13′,13′-dioxide] | 0.41 nM | 568 nM |  |
| CO[C@@]1(CN2CCN(C(=O)N(C)C)CC2)/C=C/C[C@H](C)[C@@H](C)S(=O)(=O)NC(=O)c2ccc3c(c2)N(C[C@@H]2CC[C@H]21)C[C@@]1(CCCc2cc(Cl)ccc21)CO3 [Example 259, 4-(((1S,3′R,6′R,7′S,8′E,11′S, 12′R)-6-chloro-7′-methoxy-11′,12′-dimethyl-13′,13′-dioxido-15′-oxo-3,4-dihydro-2H-spiro[naphthalene-1,22′-[20]oxa[13]thia[1,14]diazatetracyclo [14.7.2.0~3,6~.0~19,24~]pentacosa[8,16,18,24]tetraen]-7′-yl)methyl)-N,N-dimethyl-1-piperazinecarboxamide] |  |  | IC50 [1, 5]: 0.23 nM; IC50 [2, 6]: 254 nM |
| C[C@@H]1[C@@H](C)C/C=C/[C@@](O)(C#CCN2CCOCC2)[C@@H]2CC[C@H]2CN2C[C@@]3(CCCc4cc(Cl)ccc43)COc3ccc(cc32)C(=O)NS1(=O)=O [Example 100320, (1S,3′R,6′R,7′S,8′E,11′S,12′R)-6-chloro-7′-hydroxy-11′,12′-dimethyl-7′-(3-(4-morpholinyl)-1-propyn-1-yl)-3,4-dihydro-2H,15′H-spiro[naphthalene-1,22′-[20]oxa[13]thia[1,14]diazatetracyclo [14.7.2.0~3,6~.0~19,24~]pentacosa[8,16,18,24]tetraen]-15′-one 13′,13′-dioxide] | 1.2 nM |  | IC50 [2, 7]: 2140 nM |
| CO[C@@]1(CN2CCN3CCN(S(C)(=O)=O)C[C@@H]3C2)/C=C/C[C@H](C)[C@@H](C)S(=O)(=O)NC(=O)c2ccc3c(c2)N(C[C@@H]2CC[C@H]21)C[C@@]1(CCCc2cc(Cl)ccc21)CO3 (single isomer, unassigned) [Example 245] |  |  | IC50 [1, 5]: 0.12 nM; IC50 [2, 8]: 58 nM |
| C[C@@H]1[C@@H](C)CCC[C@](O)([C@@H](C)C(=O)N(C)C)[C@@H]2CC[C@H]2CN2C[C@@]3(CCCc4cc(Cl)ccc43)COc3ccc(cc32)C(=O)NS1(=O)=O (single isomer, unassigned) [Example 100117] | 2.4 nM |  | IC50 [2, 7]: 3170 nM |
